# Experimental data: patent US20070213280A1, “Steroidal Saponins Compound, the Process for Producing the Same and the Use Thereof” (GUILIN INNOVATIVE MEDICINES INVESTMENT LTD., CO., priority 2004, published 2007)
# Where a name gives a salt, the structure may show the parent alone.
# How the values were obtained:
# [1] = test system: acute miocardial infarction caused by ligation of coronary artery; assay: Acute miocardial infarction by coronary artery ligation in canines (Example 3); format: in vivo, Adult hybrid canines; settings: canine; for Infarction size/heart size (%) / Infarction size/ventricles size (%): n=2
# Description: (§1) Methods: Applying the model of acute miocardial infarction caused by ligation of coronary artery, detecting miocardial infarction scope, coronary arterial flow and myocardial consumption of oxygen to observe the curative effect of MPD injection.
# Canine was anaesthetized by 3% Pentobarbital Sodium (1 mL/kg), opening the chest, exposing the heart and making up a arcula cordis bed; leading on an epicardial electrode and then ligating the root of the left anterior descending of coronary artery (LADCA). Venous cannula on thigh was administered to inject drug, arterial cannula on cervical and pipe from external jugular vein to vena coronaria sinus were administered, thus the blood was obtained separately and AtV oxygen content were measured.
# 2.2.3 Six canines were randomly divided into model control group (injecting physiological saline 1 mL/1 kg by femoral vein), positive control group (Diltiazem Hydrochloride solution 0.5 mg/kg) and MPD treated group (20 mg/kg by femoral vein), two canines per group. The data of N-ST, Σ-ST, the blood oxygen content of vena coronaria sinus and artery, and the scope of miocardial infarction of pro-administration were collected after administration at once, and 5, 15, 30, 60, 120, 180 minutes after administration.
# Epicardial electrogram: recording the change of N-ST and Σ-ST.
# (§2) Determining the scope of miocardial infarction (N-BT staining method): quickly taking out the heart from the executed animal, then washing by physiologic saline and dewatering with filter paper, the heart was cut into 4 pieces uniformly from apex of heart to ligating thread, then the pieces were put into N-BT staining solution, keeping in common temperature, avoiding light in 2 minutes. Then measuring the size of each slice, and the size of miocardial infarction (non-staining zone with N-BT) by colorful multimedia patho-image analytical system, total area of ventricular muscle, total area of infarction of ventricular muscle, and the ratio of miocardial infarction size relative to the size of ventricles were measured respectively.
# [2] = test system: Rat model of AMI; assay: Rat model of AMI by ligating of coronary artery, PPD and MPD by pouring to stomach (Example 4); format: in vivo, Wistar rats; settings: for Death rate in operation / Infarction size/whole heart size (%): experiment 2 (repeated), 40 mg/kg by pouring to stomach
# Description: (§3) Methods: Rat model of AMI was established by ligating of coronary artery.
# (§4) Rat was anaesthetized by 3.5% chloral hydrate (10 mL/kg, by weight), then linking to electric-respirator, scraping off the fur of chest, opening thoracic cavity, exposing cardiac pericardium and then ligating the root of the left anterior descending of coronary artery (LADCA).
# (§5) 12 rats were randomly divided into model control group (physiological saline 5 mL/kg by pouring down throat) and PPD treated group (40 mg/5 mL/kg, by pouring to stomach), 6 rats per group. Rats were administrated one time after ligating, then be executed 24 hours later.
# as §5, with “24” for “12”, “to stomach), MPD treated group (40 mg/5 mL/kg, by pouring to stomach)” for “down throat)”, “stomach).” for “stomach), 6 rats per group.”
# as §2, with “5” for “4”
# [3] = test system: Rat model of AMI; assay: Rat model of AMI by ligating of coronary artery, MPD, PPD and MPD+PPD mixture (Example 5); format: in vivo, Wistar rats; settings: 40 mg/kg by pouring to stomach, one time after ligating, 24 h, relative to size of ventricles
# Description: as §3, §4
# 33 rats were randomly divided into model control group (physiological saline 5 mL/kg by pouring down throat), MPD treated group (40 mg/5 mL/kg, by pouring to stomach), PPD treated group (40 mg/5 mL/kg, by pouring to stomach) and MPD+PPD treated group (40 mg/5 mL/kg, by pouring to stomach). […]
# as §2, with “5” for “4”
# [4] = test system: acute miocardial infarction caused by ligation of coronary artery; assay: Acute miocardial infarction by coronary artery ligation in rats, MPD injection (Example 3); format: in vivo, Wistar rats; settings: rat, n=10
# Description: as §1, §4
# 2.2.1 Preliminary experiment: twenty rats were randomly divided into model control group (injecting physiological saline 3 mL/kg by vena caudalis) and MPD treated group (40 mg/kg, i.v), ten rats per group.
# 2.2.2 Repeated experiment: fifty rats were randomly divided into model control group (injecting physiological saline 3 ml/kg by vena caudalis), Di'ao Xinxuekang group (administering 40 mg/kg by intragastric administration), MPD dose-intensive group (80 mg/kg by vena caudalis injection), MPD moderate dose group (40 mg/kg) and MPD low-dose group (20 mg/kg), ten rats per group. Rats were treated after 30 minutes of preparing model successfully, and were executed after 24 hours, and observing the results.
# as §2
# [5] = 20 mg/kg by femoral vein, 20 mg/kg
structure (smiles),measurement,setting,value
"COc1ccc([C@@H]2Sc3ccccc3N(CCN(C)C)C(=O)[C@@H]2OC(C)=O)cc1 [Diltiazem Hydrochloride, reference compound]",Infarction size/heart size (%),[1]; 0.5 mg/kg,1.81 ± 0.79 %
same,Infarction size/ventricles size (%),[1]; 0.5 mg/kg,4.36 ± 1.15 %
"CC1=C(CC[C@@H](C)CO[C@@H]2O[C@H](CO)[C@@H](O)[C@H](O)[C@H]2O)O[C@H]2C[C@H]3[C@@H]4CC=C5C[C@@H](O[C@@H]6O[C@H](CO)[C@@H](O[C@@H]7O[C@@H](C)[C@H](O)[C@@H](O)[C@H]7O)[C@H](O)[C@H]6O[C@@H]6O[C@@H](C)[C@H](O)[C@@H](O)[C@H]6O)CC[C@]5(C)[C@H]4CC[C@]3(C)[C@@H]12 [PPD, Pseudoprotodioscin]",miocardial infarction size/ventricular size (%),"[2]; experiment 1, 40 mg/kg by pouring to stomach, one time after ligating, 24 h, n=6, 40 mg/kg",36.25±7.20%
same,Death rate in operation,[2],14.3% (1/7)
same,Infarction size/whole heart size (%),"[2]; one time after ligating, 24 h",36.31 ± 1.90 %
same,infarct size (IS) (%),[3],36.31±1.90%
"CO[C@]1(CC[C@@H](C)CO[C@@H]2O[C@H](CO)[C@@H](O)[C@H](O)[C@H]2O)O[C@H]2C[C@H]3[C@@H]4CC=C5C[C@@H](O[C@@H]6O[C@H](CO)[C@@H](O[C@@H]7O[C@@H](C)[C@H](O)[C@@H](O)[C@H]7O)[C@H](O)[C@H]6O[C@@H]6O[C@@H](C)[C@H](O)[C@@H](O)[C@H]6O)CC[C@]5(C)[C@H]4CC[C@]3(C)[C@H]2[C@@H]1C [MPD, Methylprotodioscin]",miocardial infarction size/ventricular size (%),"[4]; preliminary experiment, 40 mg/kg i.v., X ± SD, 40 mg/kg",33.4±8.09%
same,miocardial infarction size/ventricular size (%),"[4]; repeated experiment, dose-intensive 80 mg/kg by vena caudalis injection, 24 h",30.62±9.46%
same,miocardial infarction size/ventricular size (%),"[4]; repeated experiment, low-dose 20 mg/kg by vena caudalis injection, 24 h, 20 mg/kg",37.89±8.41%
same,miocardial infarction size/ventricular size (%),"[4]; repeated experiment, moderate dose 40 mg/kg by vena caudalis injection, 24 h, 40 mg/kg",32.32±6.92%
same,N-ST (epicardial electrogram) comparing with control group,"[1]; 20 mg/kg by femoral vein, FIG. 4",no significant difference
same,flow of aeteria coronaria comparing with control group,"[1]; 20 mg/kg by femoral vein, FIG. 6",no significant difference
same,miocardial consumption of oxygen (MCO) comparing with control group,"[1]; 20 mg/kg by femoral vein, FIG. 7",no significant difference
same,Infarction size/heart size (%),[1]; [5],2.74±0.33%
same,Infarction size/ventricles size (%),[1]; [5],7.30±0.97%
same,Death rate in operation,[2],0% (0/8)
same,Infarction size/whole heart size (%),"[2]; one time after ligating, 24 h",33.71 ± 6.73 %
same,infarct size (IS) (%),[3],36.24±3.74%
